How the values were obtained:
Assay type in all cases: cell-based
R269W ITPR1 = molecular target: T1, R269W ITPR1 (Homo sapiens, UniProt Q14643, R269W); test: Fluo-4 Ca2+ assay, UTP, HEK293 cells with inducible R269W ITPR1; details: UTP 5 μM; compound 10 μM; tetracycline-induced; FIG. 6B-C
T1 construct: expressed in transfected cells
Procedure: HEK293 cells stably transfected with tetracycline-inducible expression of wild type or mutant (R269W or T267M) ITPR1, kindly provided by Prof. S. R. Wayne Chen (University of Calgary; ref. 14), were cultured in a mixture of Dulbecco's Modified Eagle Medium (DMEM, high glucose version) and Ham's F12 (1:1) and supplemented with 10% fetal bovine serum, 2 mM L-glutamine, 100 U/ml penicillin and 100 μg/ml streptomycin. Cells were selected with 0.5 mg/ml hygromycin B and induced with 1 μg/ml tetracycline.
Experiments were performed using the microplate reader described for the HS-YFP assay. FRT and HEK293 cells were cultured until confluence in 96-well microplates (3603, Corning). Cells were washed 2 times with PBS (150 μl/wash) and then loaded for 1 h at 37° C. with 5 μM Fluo-4/AM (Thermo Fisher Scientific; catalog number: F23917) in PBS containing 10 mM glucose, 0.5 mM sulfinpyrazone, and 1% fetal bovine serum. After loading, cells were washed 2 times with PBS-glucose-sulfinpyrazone (150 μl/wash) and incubated for 20 min at 37° C. with 60 μl of PBS plus 10 mM glucose and 0.5 mM sulfinpyrazone containing compounds of interest at 10 μM final concentration or vehicle. Each well was assayed individually. Fluo-4 fluorescence (500 nm excitation, 535 nm emission) was detected every 200 ms for 16-40 s. Two seconds after the start of fluorescence recording, the reader automatically injected 165 μl of a modified PBS containing 136 mM KCl instead of NaCl. This solution also contained 10 mM glucose, 0.5 mM sulfinpyrazone, and UTP or SLIGR-NH2 (CAS #171436-38-7) at a final concentration that depended on the specific cell type. For UTP we used: 0.25 μM for FRT; 1 μM for HEKR2; 5 μM for HEK3XKO, HEKR1, and HEKR3. For SLIGR-NH2 we used: 10 μM for HEKR1; 4 μM for HEKR2. These concentrations were chosen to elicit ˜20% of maximal effect based on UTP and SLIGR-NH2 dose-response relationships. […] The Fluo-4 fluorescence increase was quantified using a procedure compiled in Microsoft Excel after background subtraction and normalization for the initial value measured before UTP addition.

[1] = test system: protease-activated receptors; test: Fluo-4 Ca2+ assay, SLIGR-NH2 stimulus, HEKR1 cells; details: SLIGR-NH2 10 μM; compounds 10 μM; FIG. 5C top
Procedure: Experiments were performed using the microplate reader described for the HS-YFP assay. FRT and HEK293 cells were cultured until confluence in 96-well microplates (3603, Corning). Cells were washed 2 times with PBS (150 μl/wash) and then loaded for 1 h at 37° C. with 5 μM Fluo-4/AM (Thermo Fisher Scientific; catalog number: F23917) in PBS containing 10 mM glucose, 0.5 mM sulfinpyrazone, and 1% fetal bovine serum. After loading, cells were washed 2 times with PBS-glucose-sulfinpyrazone (150 μl/wash) and incubated for 20 min at 37° C. with 60 μl of PBS plus 10 mM glucose and 0.5 mM sulfinpyrazone containing compounds of interest at 10 μM final concentration or vehicle. Each well was assayed individually. Fluo-4 fluorescence (500 nm excitation, 535 nm emission) was detected every 200 ms for 16-40 s. Two seconds after the start of fluorescence recording, the reader automatically injected 165 μl of a modified PBS containing 136 mM KCl instead of NaCl. This solution also contained 10 mM glucose, 0.5 mM sulfinpyrazone, and UTP or SLIGR-NH2 (CAS #171436-38-7) at a final concentration that depended on the specific cell type. For UTP we used: 0.25 μM for FRT; 1 μM for HEKR2; 5 μM for HEK3XKO, HEKR1, and HEKR3. For SLIGR-NH2 we used: 10 μM for HEKR1; 4 μM for HEKR2. These concentrations were chosen to elicit ˜20% of maximal effect based on UTP and SLIGR-NH2 dose-response relationships. The lower agonist concentrations used for HEKR2 cells, compared to HEKR1 cells, are consistent with the higher affinity of ITPR2 for IP3 (16). The Fluo-4 fluorescence increase was quantified using a procedure compiled in Microsoft Excel after background subtraction and normalization for the initial value measured before UTP addition.

ITPR = test: ci-IP3/PM uncaging Ca2+ imaging assay in FRT cells; details: compounds 10 μM; FIG. 4
Procedure: FRT and HEK293 cells were cultured in μ-Plate96 microplates (Ibidi) at subconfluent condition. Cells were washed 2 times with PBS (150 μl/wash) and then loaded for 45 min at 37° C. with 1 μM ci-IP3/PM (Tocris; catalog number: 6210/10U) and 5 μM Fluo-4/AM (Thermo Fisher Scientific) in PBS containing 10 mM glucose, 0.5 mM sulfinpyrazone and 1% fetal bovine serum. After 45 min, cells were further incubated for 1 h at 37° C. with a fresh PBS solution containing Fluo-4/AM, glucose, sulfinpyrazone, serum, but no ci-IP3/PM. After the second loading, cells were washed 2 times with PBS-glucose-sulfinpyrazone (150 μl/wash) and incubated for 20 min at 37° C. with 125 μl of PBS plus 10 mM glucose and 0.5 mM sulfinpyrazone containing compounds of interest at 10 μM final concentration or vehicle. Each well was assayed individually using an inverted Olympus microscope equipped with 40×oil immersion objective, 530 nm emission filter, Lambda DG4 (Sutter Instrument Co., Novato, CA, USA) illumination system with a 490 nm excitation filter, (Olympus, Segrate, Italy), Prime cmos camera (Photometrics, Tucson, AZ, USA) and MetaFluor imaging acquisition software (Molecular Devices, Sunnyvale, CA, USA). Time-lapse experiments were carried out with 50 ms exposure time, 0.5 s interval and 1.8 min total duration. […] Analysis was performed with MetaFluor software, by quantifying Fluo-4 fluorescence in manually selected single cell region of interest (ROI). Eight cells were selected in each field to generate an average trace. After background subtraction, fluorescence traces were normalized for the initial value.

T1 sequence (Q14643 whole entry R269W): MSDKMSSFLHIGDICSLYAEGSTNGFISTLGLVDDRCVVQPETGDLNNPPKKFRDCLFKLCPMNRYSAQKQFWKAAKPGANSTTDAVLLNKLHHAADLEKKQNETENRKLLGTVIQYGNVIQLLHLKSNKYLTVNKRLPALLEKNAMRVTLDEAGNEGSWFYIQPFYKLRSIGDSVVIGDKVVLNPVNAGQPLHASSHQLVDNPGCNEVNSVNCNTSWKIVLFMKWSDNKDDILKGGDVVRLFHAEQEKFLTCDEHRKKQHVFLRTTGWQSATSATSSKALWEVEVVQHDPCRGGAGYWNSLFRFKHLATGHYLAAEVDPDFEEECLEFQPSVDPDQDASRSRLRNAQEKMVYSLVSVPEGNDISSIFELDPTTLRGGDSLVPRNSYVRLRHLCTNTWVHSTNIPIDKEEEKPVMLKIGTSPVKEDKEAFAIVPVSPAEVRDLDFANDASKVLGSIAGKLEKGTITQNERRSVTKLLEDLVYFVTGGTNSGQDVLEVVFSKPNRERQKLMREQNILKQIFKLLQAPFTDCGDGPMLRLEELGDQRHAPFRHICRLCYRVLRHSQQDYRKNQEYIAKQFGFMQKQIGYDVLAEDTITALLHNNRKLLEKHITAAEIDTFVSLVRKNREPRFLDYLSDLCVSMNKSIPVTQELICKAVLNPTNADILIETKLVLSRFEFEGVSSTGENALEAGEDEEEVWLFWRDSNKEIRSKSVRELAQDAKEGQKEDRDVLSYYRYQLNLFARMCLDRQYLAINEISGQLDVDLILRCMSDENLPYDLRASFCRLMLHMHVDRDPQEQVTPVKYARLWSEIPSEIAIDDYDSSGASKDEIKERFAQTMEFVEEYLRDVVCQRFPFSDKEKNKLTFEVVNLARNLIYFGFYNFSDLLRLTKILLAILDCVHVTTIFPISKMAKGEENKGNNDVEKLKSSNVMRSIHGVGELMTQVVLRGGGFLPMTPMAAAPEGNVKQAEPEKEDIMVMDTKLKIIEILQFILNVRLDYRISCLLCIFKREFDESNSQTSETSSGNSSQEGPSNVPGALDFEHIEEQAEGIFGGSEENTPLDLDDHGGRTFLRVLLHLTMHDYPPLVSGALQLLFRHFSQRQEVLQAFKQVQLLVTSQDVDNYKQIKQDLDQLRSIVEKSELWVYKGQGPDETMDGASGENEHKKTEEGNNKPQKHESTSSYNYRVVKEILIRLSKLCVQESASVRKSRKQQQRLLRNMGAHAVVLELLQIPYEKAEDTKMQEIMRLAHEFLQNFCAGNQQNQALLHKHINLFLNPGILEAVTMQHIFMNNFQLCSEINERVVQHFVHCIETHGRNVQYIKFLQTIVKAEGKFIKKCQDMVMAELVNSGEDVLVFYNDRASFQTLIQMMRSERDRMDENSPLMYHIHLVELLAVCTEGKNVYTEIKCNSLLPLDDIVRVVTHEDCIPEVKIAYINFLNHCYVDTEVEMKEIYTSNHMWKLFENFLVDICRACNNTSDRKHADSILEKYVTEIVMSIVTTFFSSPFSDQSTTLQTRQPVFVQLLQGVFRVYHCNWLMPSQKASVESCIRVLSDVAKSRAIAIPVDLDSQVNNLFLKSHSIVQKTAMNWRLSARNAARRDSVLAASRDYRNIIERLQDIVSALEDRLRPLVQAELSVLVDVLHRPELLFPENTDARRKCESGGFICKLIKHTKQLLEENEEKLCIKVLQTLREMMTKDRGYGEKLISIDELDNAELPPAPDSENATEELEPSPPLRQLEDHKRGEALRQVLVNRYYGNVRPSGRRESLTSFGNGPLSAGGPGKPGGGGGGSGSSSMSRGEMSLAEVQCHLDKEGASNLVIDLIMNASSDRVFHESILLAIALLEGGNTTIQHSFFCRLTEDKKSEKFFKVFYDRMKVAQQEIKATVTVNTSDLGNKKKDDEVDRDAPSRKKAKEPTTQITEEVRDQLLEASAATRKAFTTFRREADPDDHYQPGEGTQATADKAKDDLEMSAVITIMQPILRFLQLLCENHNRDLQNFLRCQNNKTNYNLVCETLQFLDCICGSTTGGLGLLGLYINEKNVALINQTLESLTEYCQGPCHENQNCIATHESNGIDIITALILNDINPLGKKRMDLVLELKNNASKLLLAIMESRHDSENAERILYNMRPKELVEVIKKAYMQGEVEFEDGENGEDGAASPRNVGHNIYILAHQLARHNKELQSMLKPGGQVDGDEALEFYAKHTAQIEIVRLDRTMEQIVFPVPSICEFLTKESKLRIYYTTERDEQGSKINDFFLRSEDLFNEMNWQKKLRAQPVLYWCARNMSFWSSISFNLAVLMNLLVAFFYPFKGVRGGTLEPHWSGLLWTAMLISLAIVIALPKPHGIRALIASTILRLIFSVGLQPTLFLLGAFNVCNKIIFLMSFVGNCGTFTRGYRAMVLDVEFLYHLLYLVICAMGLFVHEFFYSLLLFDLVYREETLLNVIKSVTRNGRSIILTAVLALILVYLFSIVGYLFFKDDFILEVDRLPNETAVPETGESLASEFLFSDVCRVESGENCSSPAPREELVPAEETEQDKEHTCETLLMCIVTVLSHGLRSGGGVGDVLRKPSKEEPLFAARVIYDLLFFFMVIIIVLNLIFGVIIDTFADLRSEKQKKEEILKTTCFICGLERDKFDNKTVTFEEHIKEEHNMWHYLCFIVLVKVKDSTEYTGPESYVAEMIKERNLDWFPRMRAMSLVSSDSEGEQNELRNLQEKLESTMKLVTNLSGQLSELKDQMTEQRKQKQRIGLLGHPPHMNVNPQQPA

| Structure (SMILES) | potentiation of Ca2+ mobilization elicited by UTP, R269W mutant (R269W ITPR1) | potentiation of SLIGR-NH2 stimulus (Ca2+ mobilization), HEKR1 cells [1] | activity on Ca2+ mobilization by IP3 uncaging, FRT cells (ITPR) |
| --- | --- | --- | --- |
| OCc1ccccc1CN(Cc1ccnc(N2CCCC2)n1)c1ccc(F)cc1 [ARN4550, [2-[[4-Fluoro-N-[(2-pyrrolidin-1-ylpyrimidin-4-yl)methyl]anilino]methyl]phenyl]methanol] | also effective although less than ARN11391 | effective as potentiators | inactive |
| CCc1cc(-c2cc(NCCCOc3ccccc3C)nc(N)n2)n(C)n1 [ARN7149, 6-(3-Ethyl-1-methyl-1H-pyrazol-5-yl)-N^4-(3-(o-tolyloxy)propyl)pyrimidine-2,4-diamine] | also effective although less than ARN11391 | significant inhibition | inactive |
| CCn1nc2c(c1C(=O)Nc1ccccc1OCC1CCCCO1)CCCC2 (stereo not drawn) [ARN11391, 2-Ethyl-N-[2-(tetrahydropyran-2-ylmethoxy)phenyl]-4,5,6,7-tetrahydroindazole-3-carboxamide] | marked potentiation | effective as potentiators | showed activity |

Reference: US20260138970A1, “MODULATORS OF THE CALCIUM SIGNALING CASCADE” (FONDAZIONE TELETHON ETS, priority 2022, published 2026)
